Source: US20250129078A1, “ERBB2 INHIBITORS” (Cogent Biosciences, Inc., priority 2023, published 2025)

Experiments:
EGFR WT = EGFR WT (Homo sapiens (Human), UniProt P00533); assay: ErbB enzyme assay (CisBio HTRF-KinEASE-TK), EGFR WT; format: biochemical; details: ATP at Km (25 μM), 1 h incubation
Procedure, shortened: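 Tyrosine kinase HTRF, 1 h RT reaction → quench (Sa-XL665/TK-Ab-Cryptate) → 1 h RT → 655/620 ratio.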

[1] = Blood brain barrier penetration assay in CD-1 mice (short oral absorption model, Kpuu brain); format: in vivo; details: mouse, brain and plasma, male CD-1 mice, 1 h post-dose, Kpuu brain = conc (brain)/conc (plasma) x (fu brain/fu plasma)
Experimental: In vitro plasma and brain binding assays were carried out using the equilibrium dialysis method. EDTA-anticoagulated plasma and diluted brain homogenate (1:3 with DPBS pH 7.4) were spiked with 2 μM test compound and dialyzed against an equal volume of 100 μL 100 mM sodium phosphate buffer (pH 7.4) at 37° C. for 4 h in a slowly rotated plate. At the end of the dialysis 50 μL aliquots from the buffer side and matrix side of the dialysis device were taken into new 96-well plates. An equal volume of opposite blank matrix (buffer or matrix) in each sample was added to reach a final volume of 100 μL. All samples were processed by protein precipitation for LC/MS/MS analysis. Unbound fraction (fu) of test compound was calculated by the ratio of buffer side response to the brain homogenate/plasma side response, and unbound fraction (fu,pl and fu,br) of test compound in non-diluted plasma and brain tissue were calculated from measured fu in homogenate and plasma with the following equation: fu,pl or fu,br=1/D/((1/(F/T)-1)+1/D). F is the free compound concentration as determined by the calculated concentration on the buffer side of the membrane and T is the total compound concentration as determined by the calculated concentration on the matrix side of the membrane. D is the dilution factor (D equals 1 for plasma, and 4 for brain).
A short oral absorption model is an in-vivo screening model to identify brain penetration of a compound. Three male CD-1 mice were orally dosed with an appropriate vehicle. At the 1 h timepoint post-dose, blood samples were collected via cardiac puncture, placed into EDTA anti-coagulated tubes, and spiked with 1% 1 mM quinidine (aq). The samples were placed on wet ice until centrifugation at 4000×g for 10 min. Brain tissue was rinsed with saline and the liquid was drained. The brains were weighed and transferred to tubes for homogenization. Each tube contained 1 g tissue, 9 mL buffer (1:2 v/v MeOH:15 mM PBS), and a spike of 1% 1 mM quinidine (aq). All samples were stored at −80° C. prior to LC/MS/MS analysis. Standards were prepared by spiking blank plasma and brain homogenate. Aliquots (10 μL) of sample, calibration standard, quality control, dilution quality control, single blank, and double blank were added to the 96-well plate respectively. Homogenized brain tissue along with plasma samples were precipitated by adding 190 μL cold MeCN containing internal standard (the double blank sample was quenched with 190 L MeCN). The mixture was vortex-mixed for 5 min at 1000 rpm and centrifuged for 10 min at 3220×g, 4° C. […] The free fraction of test compound in biological matrix was determined by using in vitro plasma and brain tissue free fraction. Kpuu brain was calculated by the equation: Kpuu brain=cone (brain)/conc (plasma)×(fu brain/fu plasma).

ErbB2 V777L = ErbB2 V777L (Homo sapiens (Human), UniProt P04626, V777L); assay: ErbB enzyme assay (CisBio HTRF-KinEASE-TK), ErbB2 V777L; format: biochemical
Sequence of ErbB2 V777L (P04626 23-1255 V777L): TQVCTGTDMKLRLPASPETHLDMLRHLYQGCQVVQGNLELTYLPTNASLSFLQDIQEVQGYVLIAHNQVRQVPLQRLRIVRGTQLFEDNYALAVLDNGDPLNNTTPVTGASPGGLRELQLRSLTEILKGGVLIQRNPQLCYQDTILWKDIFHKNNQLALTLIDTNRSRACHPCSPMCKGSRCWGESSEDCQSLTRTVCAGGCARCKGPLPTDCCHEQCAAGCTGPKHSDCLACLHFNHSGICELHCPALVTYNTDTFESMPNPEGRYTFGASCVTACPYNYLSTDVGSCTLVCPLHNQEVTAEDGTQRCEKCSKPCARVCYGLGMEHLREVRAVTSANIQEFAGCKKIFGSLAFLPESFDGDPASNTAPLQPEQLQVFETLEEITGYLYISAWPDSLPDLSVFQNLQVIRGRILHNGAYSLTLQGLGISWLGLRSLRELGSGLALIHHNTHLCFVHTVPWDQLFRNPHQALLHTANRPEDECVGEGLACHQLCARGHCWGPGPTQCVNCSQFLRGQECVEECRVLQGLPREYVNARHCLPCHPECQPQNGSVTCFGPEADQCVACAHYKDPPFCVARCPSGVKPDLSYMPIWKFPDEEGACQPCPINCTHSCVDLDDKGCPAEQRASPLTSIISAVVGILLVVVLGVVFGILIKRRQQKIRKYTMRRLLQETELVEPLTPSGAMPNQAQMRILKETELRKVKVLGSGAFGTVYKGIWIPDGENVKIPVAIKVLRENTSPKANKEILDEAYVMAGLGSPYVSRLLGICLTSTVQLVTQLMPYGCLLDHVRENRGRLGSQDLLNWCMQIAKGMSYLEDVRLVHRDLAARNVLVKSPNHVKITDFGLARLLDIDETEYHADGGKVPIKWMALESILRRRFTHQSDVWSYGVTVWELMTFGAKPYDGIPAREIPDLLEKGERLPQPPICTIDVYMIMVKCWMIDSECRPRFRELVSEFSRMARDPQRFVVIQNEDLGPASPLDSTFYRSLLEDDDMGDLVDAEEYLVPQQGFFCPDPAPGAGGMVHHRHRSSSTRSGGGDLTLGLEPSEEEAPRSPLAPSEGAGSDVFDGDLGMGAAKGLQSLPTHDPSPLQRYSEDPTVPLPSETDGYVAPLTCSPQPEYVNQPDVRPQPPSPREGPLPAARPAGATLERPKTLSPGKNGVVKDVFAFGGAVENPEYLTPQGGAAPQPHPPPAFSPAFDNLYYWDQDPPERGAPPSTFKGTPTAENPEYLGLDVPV
Procedure, shortened: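 HTRF KinEASE-TK tyrosine-kinase read-out of substrate phosphorylation after a final 1 h at ambient temperature, from the 655/620 nm emission ratio.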

ErbB2 mutant L755S = ErbB2 mutant L755S (Homo sapiens (Human), UniProt P04626, L755S); assay: ErbB cellular phosphorylation assay (phospho-ErbB2 ELISA), HEK-293 cells expressing ErbB2 L755S; format: cell-based; details: 1 h treatment
Sequence of ErbB2 mutant L755S (P04626 23-1255 L755S): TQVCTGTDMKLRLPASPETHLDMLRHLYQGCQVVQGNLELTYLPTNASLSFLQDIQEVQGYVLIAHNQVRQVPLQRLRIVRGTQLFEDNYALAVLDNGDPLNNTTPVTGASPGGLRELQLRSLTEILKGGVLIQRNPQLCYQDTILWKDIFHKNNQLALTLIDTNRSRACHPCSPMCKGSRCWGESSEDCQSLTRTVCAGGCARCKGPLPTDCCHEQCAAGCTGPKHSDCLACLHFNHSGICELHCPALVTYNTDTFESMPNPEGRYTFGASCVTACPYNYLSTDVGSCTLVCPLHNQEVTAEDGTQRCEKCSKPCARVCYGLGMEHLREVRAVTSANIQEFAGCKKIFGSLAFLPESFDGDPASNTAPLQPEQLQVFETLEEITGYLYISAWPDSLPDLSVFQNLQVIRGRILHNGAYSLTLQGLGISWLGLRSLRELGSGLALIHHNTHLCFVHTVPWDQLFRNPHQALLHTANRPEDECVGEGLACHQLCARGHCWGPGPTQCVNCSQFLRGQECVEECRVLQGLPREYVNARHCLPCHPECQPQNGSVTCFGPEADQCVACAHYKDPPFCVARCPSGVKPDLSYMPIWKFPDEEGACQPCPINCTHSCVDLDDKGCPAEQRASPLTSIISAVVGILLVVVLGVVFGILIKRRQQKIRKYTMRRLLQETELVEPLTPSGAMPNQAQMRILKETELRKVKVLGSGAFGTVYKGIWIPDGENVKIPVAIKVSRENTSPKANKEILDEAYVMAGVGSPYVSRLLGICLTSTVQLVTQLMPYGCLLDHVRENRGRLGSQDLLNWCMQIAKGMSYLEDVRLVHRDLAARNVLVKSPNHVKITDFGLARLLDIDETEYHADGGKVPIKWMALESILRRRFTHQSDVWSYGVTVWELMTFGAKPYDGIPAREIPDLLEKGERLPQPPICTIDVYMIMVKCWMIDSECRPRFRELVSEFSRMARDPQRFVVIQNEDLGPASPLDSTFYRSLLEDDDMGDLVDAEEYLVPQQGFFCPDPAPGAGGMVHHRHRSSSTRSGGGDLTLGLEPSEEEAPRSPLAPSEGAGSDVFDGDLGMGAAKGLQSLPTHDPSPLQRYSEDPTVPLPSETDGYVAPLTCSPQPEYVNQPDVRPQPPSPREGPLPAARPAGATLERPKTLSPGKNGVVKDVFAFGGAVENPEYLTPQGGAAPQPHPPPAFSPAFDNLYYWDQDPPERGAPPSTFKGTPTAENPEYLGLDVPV
Experimental: Cells were seeded in poly-D-lysine coated, 96-well plates at a density of 50,000 cells/well in complete medium (DMEM supplemented with 10% fetal bovine serum and G418) and incubated for 24 h at 37° C., 5% CO2 prior to treatment. Cells were treated with compound using three-fold dilutions at final concentrations ranging from […] for 1 h at 37° C., 5% CO2. EGFR-WT cells were stimulated with 500 ng/mL recombinant human EGF (R&D Systems, 236-EG) for an additional 5 min. After compound incubation, medium was removed from the plate, and cells were lysed in buffer containing protease and phosphatase inhibitors ([…]). Cell lysates were analyzed by enzyme-linked immunosorbent assay (ELISA). The ELISAs were performed to measure phosphorylated ErbB2 or phosphorylated EGFR levels, respectively (R&D Systems, DYC-1768, Human Phospho-ErbB2 DuoSet ELISA; DYC1095, Human Phospho-EGFR DuoSet IC ELISA) according to the manufacturer's instructions. Absorbance was measured at 450 nm using a BioTek Cytation 5 plate reader (Agilent, Santa Clara, CA) and IC50 values were calculated using a 4-parameter fit.

EGFR wild type = EGFR wild type (Homo sapiens (Human), UniProt P00533); assay: ErbB cellular phosphorylation assay (phospho-EGFR ELISA), HEK-293 cells expressing EGFR wild type, EGF stimulated; format: cell-based; details: 1 h treatment
Sequence of EGFR wild type (P00533 25-1210): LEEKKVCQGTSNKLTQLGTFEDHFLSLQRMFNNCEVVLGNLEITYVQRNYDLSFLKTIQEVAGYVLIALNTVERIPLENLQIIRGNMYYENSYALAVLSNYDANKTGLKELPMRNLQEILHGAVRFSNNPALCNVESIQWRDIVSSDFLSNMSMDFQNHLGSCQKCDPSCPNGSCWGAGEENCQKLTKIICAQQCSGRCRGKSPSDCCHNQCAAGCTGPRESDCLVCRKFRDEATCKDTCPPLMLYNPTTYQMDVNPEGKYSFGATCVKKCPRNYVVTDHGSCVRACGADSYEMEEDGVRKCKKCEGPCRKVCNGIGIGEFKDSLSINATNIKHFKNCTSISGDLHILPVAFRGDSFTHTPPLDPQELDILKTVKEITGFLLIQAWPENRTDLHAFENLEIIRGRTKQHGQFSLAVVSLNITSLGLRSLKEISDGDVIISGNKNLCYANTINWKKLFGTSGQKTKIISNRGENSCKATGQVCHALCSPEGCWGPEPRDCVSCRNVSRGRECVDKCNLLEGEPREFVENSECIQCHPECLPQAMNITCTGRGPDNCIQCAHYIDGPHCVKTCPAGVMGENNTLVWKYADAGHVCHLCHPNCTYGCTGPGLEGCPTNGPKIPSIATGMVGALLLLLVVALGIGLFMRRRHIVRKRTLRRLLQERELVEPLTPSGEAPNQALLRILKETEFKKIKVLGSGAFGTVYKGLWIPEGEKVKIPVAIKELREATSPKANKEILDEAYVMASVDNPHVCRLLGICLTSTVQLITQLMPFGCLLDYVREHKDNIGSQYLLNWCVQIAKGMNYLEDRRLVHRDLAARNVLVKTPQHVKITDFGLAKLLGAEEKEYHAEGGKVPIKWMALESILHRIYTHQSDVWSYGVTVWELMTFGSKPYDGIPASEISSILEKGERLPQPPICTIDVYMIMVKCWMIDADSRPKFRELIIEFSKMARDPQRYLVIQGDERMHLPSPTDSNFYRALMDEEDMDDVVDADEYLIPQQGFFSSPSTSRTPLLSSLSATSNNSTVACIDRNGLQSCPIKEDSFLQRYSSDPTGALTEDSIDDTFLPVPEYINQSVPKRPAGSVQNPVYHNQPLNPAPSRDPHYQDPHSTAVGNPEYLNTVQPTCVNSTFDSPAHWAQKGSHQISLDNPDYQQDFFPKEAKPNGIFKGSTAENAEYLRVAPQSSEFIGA
Experimental: HEK-293 cells were engineered to constitutively express ErbB2 mutant L755S or EGFR wild type (constructs obtained from GenScript, Piscataway, NJ). Cells were seeded in poly-D-lysine coated, 96-well plates at a density of 50,000 cells/well in complete medium (DMEM supplemented with 10% fetal bovine serum and G418) and incubated for 24 h at 37° C., 5% CO2 prior to treatment. Cells were treated with compound using three-fold dilutions at final concentrations ranging from […] for 1 h at 37° C., 5% CO2. EGFR-WT cells were stimulated with 500 ng/mL recombinant human EGF (R&D Systems, 236-EG) for an additional 5 min. After compound incubation, medium was removed from the plate, and cells were lysed in buffer containing protease and phosphatase inhibitors ([…]). Cell lysates were analyzed by enzyme-linked immunosorbent assay (ELISA). The ELISAs were performed to measure phosphorylated ErbB2 or phosphorylated EGFR levels, respectively (R&D Systems, DYC-1768, Human Phospho-ErbB2 DuoSet ELISA; DYC1095, Human Phospho-EGFR DuoSet IC ELISA) according to the manufacturer's instructions. Absorbance was measured at 450 nm using a BioTek Cytation 5 plate reader (Agilent, Santa Clara, CA) and IC50 values were calculated using a 4-parameter fit.

Sequence of EGFR WT (P00533 25-1210): as above

Q: With `C=CC(=O)N1CCN(c2ncc3ncnc(Nc4ccc(Oc5ccc6c(c5)nnn6C)c(C)c4)c3n2)CC1` [Compound 5, 1-(4-(8-((3-methyl-4-((1-methyl-1H-benzo[d][1,2,3]triazol-5-yl)oxy)phenyl)amino)pyrimido[5,4-d]pyrimidin-2-yl)piperazin-1-yl)prop-2-en-1-one] as the compound, how does the IC50 (EGFR WT) read?
A: 100 to 500 nM

Q: What about the Kp uu at 1 h [1] of the same compound?
A: 0.22

Q: For `C=CC(=O)N1CCN(c2ncc3ncnc(Nc4ccc(Oc5cnc6c(c5)ncn6C)c(C)c4)c3n2)CC1` [Compound 235, 1-(4-(8-((3-methyl-4-((3-methyl-3H-imidazo[4,5-b]pyridin-6-yl)oxy)phenyl)amino)pyrimido[5,4-d]pyrimidin-2-yl)piperazin-1-yl)prop-2-en-1-one], which IC50 (EGFR WT) is on record?
A: 100 to 500 nM

Q: What about the Kp uu at 1 h [1] of the same compound?
A: 0.04

Q: Which IC50 (ErbB2 V777L) does the source give for `C=CC(=O)N1CCN(c2ncc3ncnc(Nc4ccc(Oc5ccn6ncnc6c5)c(C)c4F)c3c2F)CC1` [Compound 101, 1-(4-(4-((4-([1,2,4]triazolo[1,5-a]pyridin-7-yloxy)-2-fluoro-3-methylphenyl)amino)-5-fluoropyrido[3,4-d]pyrimidin-6-yl)piperazin-1-yl)prop-2-en-1-one] here?
A: 100 to 500 nM

Q: What about the IC50 (EGFR WT) of the same compound?
A: 100 to 500 nM

Q: And the IC50 (ErbB2 mutant L755S)?
A: 100 to 500 nM

Q: And the IC50 (EGFR wild type)?
A: ≥ 5000 nM

Q: What does the source list for `C=CC(=O)N1CCN(c2ncc3ncnc(Nc4ccc(Oc5ccc6c(c5)nnn6C)c(C)c4)c3c2OC)CC1` [Compound 105]?
A: IC50 (ErbB2 V777L): 100 to 500 nM; IC50 (EGFR WT): 500 to 1000 nM; IC50 (ErbB2 mutant L755S): 100 to 500 nM; IC50 (EGFR wild type): ≥ 5000 nM

Q: Which Kp uu at 1 h [1] does the source give for `C=CC(=O)N1CCN(c2ncc3ncnc(Nc4ccc(Oc5ccc6c(c5)ncn6C)c(C)c4)c3n2)CC1` [Analog of compound 5, reference compound] here?
A: 0.04

Q: With `CC#CC(=O)N1CCN(c2ncc3ncnc(Nc4ccc(Oc5ccc6c(c5)nnn6C)c(C)c4)c3n2)CC1` [Compound 55, 1-(4-(8-((3-methyl-4-((1-methyl-1H-benzo[d][1,2,3]triazol-5-yl)oxy)phenyl)amino)pyrimido [5,4-d]pyrimidin-2-yl)piperazin-1-yl) but-2-yn-1-one] as the compound, how does the IC50 (ErbB2 V777L) read?
A: 100 to 500 nM

Q: And the IC50 (EGFR WT)?
A: 500 to 1000 nM

Q: And the IC50 (ErbB2 mutant L755S)?
A: 100 to 500 nM

Q: And the IC50 (EGFR wild type)?
A: ≥ 5000 nM

Q: With `C=CC(=O)N1CCN(c2ncc3ncnc(Nc4ccc(Oc5cc(F)c6c(c5)nnn6C)c(C)c4F)c3n2)C[C@H]1C` [Compound 49, (R)-1-(4-(8-((2-fluoro-4-((7-fluoro-1-methyl-1H-benzo[d][1,2,3]triazol-5-yl)oxy)-3-methylphenyl)amino)pyrimido[5,4-d]pyrimidin-2-yl)-2-methylpiperazin-1-yl)prop-2-en-1-one] as the compound, how does the IC50 (ErbB2 V777L) read?
A: 100 to 500 nM

Q: What about the IC50 (EGFR WT) of the same compound?
A: < 50 nM

Q: What about the IC50 (ErbB2 mutant L755S) of the same compound?
A: 100 to 500 nM

Q: What about the IC50 (EGFR wild type) of the same compound?
A: ≥ 5000 nM

Q: Which IC50 (ErbB2 V777L) does the source give for `C=CC(=O)N1CCC2(C1)CN(c1ncc3ncnc(Nc4ccc(Oc5ccc6c(c5)nnn6C)c(C)c4)c3n1)C2` [Compound 15, 1-(2-(8-((3-methyl-4-((1-methyl-1H-benzo[d][1,2,3]triazol-5-yl)oxy)phenyl)amino)pyrimido[5,4-d]pyrimidin-2-yl)-2,6-diazaspiro[3.4]octan-6-yl)prop-2-en-1-one] here?
A: 500 to 1000 nM

Q: What about the IC50 (EGFR WT) of the same compound?
A: ≥ 1000 nM

Q: And the IC50 (ErbB2 mutant L755S)?
A: 500 to 1000 nM

Q: And the IC50 (EGFR wild type)?
A: ≥ 5000 nM

Q: With `C=CC(=O)N1CCN(c2ncc3ncnc(Nc4cc(C)c(Oc5ccc6c(c5)ncn6C(F)F)cc4OC)c3n2)C[C@H]1C` [Compound 39, (R)-1-(4-(8-((4-((1-(difluoromethyl)-1H-benzo[d]imidazol-5-yl)oxy)-2-methoxy-5-methylphenyl)amino)pyrimido[5,4-d]pyrimidin-2-y1)-2-methylpiperazin-1-yl)prop-2-en-1-one] as the compound, how does the IC50 (ErbB2 V777L) read?
A: 100 to 500 nM

Q: And the IC50 (EGFR WT)?
A: 500 to 1000 nM

Q: What about the IC50 (ErbB2 mutant L755S) of the same compound?
A: 100 to 500 nM

Q: And the IC50 (EGFR wild type)?
A: ≥ 5000 nM

Q: Which results are given for `C=CC(=O)N1CCN(c2ncc3ncnc(Nc4ccc(Oc5cc(F)c6c(c5)ncn6C)c(C)c4)c3n2)CC1` [Compound 64, 1-(4-(8-((4-((7-fluoro-1-methyl-1H-benzo[d]imidazol-5-yl)oxy)-3-methylphenyl)amino)pyrimido[5,4-d]pyrimidin-2-yl)piperazin-1-yl)prop-2-en-1-one]?
A: IC50 (ErbB2 V777L): < 50 nM; IC50 (EGFR WT): < 50 nM; Kp uu at 1 h [1]: 0.12
